Results reported in patent US20090163413A1, “DENTAL PRODUCTS COMPRISING BONE GROWTH ENHANCING PEPTIDE” (Acologix., Inc., priority 2000, published 2009).
No end group written: not given here.

Test system: calvaria from 4-days-old mice
Experiment: Fetal mouse calvarial assay (mouse calvarial organ culture, histomorphometrical analysis of new bone area)
Type: cell-based
Details: assay terminated at day 7, FGF-1 as positive control
Method: FGF-1 was purchased from Peprotech Inc. (Rocky Hill, N.J.). RGD-1, 2, 3, 4, 5 and 6 (referred to here as D-00001, D-00002, D-00003, D-00004, D-00005 and D-00006) were provided by Dr. Nomizu (Hokkaido University, Japan).
Pregnant ICR mice were purchased from SLC Japan Co. Ltd. (Shizuoka, Japan).
Mouse calvarial organ culture was performed as described in Mundy G et al. Science 286: 1946-1949, 1999 and Traianedes K et al. Endocrinology 139: 3178-3184, 1998. The calvaria from 4-days-old mice were excised and cut in half along the sagittal suture. Each half of the calvaria was placed on a stainless steel grid in a 12-well tissue culture dish (Asahi Glass Techno Corp., Funabashi, Japan). Each well contained 1.5 ml of BGj medium (Sigma, St. Louis, Mo.) supplemented with 0.1% bovine serum albumin (Sigma) and each compound. FGF-1 was used as a positive control as described by Mundy et al. The medium was changed at day 1 and 4, and the assay was terminated at day 7.
Calvaria was fixed with 10% neutral-buffered formalin, decalcified with 4.13% EDTA and embedded in paraffin. […] sections were made and stained with hematoxylin and eosin. New bone area was measured using Image-Pro Plus (Media Cybernetics, Silver Spring, Md.).
The six peptides of Example 1 were tested for their ability to enhance bone growth with the tests being carried out as described above in Example 2.

| Sequence | ability to enhance bone growth (new bone area) |
| --- | --- |
| ERGDNDISPFSGDGQ (ERGDNDISPFSGDGQ-NH2) [D-00004] | best results |
| TDLQERGDNDISPFSGDGQPFKD [D-00006] | best results |
